Values quoted from earlier work, collected in patent US10758505B2, “Therapeutic compositions and methods” (Innovus Pharmaceuticals, Inc., priority 2017, dated 2020).

Experiments:
human CYP3A4 = human CYP3A4 (Homo sapiens, UniProt P08684)
P-glycoprotein = P-glycoprotein (Homo sapiens, UniProt P08183)
P-glycoprotein, sequence (P08183 whole entry): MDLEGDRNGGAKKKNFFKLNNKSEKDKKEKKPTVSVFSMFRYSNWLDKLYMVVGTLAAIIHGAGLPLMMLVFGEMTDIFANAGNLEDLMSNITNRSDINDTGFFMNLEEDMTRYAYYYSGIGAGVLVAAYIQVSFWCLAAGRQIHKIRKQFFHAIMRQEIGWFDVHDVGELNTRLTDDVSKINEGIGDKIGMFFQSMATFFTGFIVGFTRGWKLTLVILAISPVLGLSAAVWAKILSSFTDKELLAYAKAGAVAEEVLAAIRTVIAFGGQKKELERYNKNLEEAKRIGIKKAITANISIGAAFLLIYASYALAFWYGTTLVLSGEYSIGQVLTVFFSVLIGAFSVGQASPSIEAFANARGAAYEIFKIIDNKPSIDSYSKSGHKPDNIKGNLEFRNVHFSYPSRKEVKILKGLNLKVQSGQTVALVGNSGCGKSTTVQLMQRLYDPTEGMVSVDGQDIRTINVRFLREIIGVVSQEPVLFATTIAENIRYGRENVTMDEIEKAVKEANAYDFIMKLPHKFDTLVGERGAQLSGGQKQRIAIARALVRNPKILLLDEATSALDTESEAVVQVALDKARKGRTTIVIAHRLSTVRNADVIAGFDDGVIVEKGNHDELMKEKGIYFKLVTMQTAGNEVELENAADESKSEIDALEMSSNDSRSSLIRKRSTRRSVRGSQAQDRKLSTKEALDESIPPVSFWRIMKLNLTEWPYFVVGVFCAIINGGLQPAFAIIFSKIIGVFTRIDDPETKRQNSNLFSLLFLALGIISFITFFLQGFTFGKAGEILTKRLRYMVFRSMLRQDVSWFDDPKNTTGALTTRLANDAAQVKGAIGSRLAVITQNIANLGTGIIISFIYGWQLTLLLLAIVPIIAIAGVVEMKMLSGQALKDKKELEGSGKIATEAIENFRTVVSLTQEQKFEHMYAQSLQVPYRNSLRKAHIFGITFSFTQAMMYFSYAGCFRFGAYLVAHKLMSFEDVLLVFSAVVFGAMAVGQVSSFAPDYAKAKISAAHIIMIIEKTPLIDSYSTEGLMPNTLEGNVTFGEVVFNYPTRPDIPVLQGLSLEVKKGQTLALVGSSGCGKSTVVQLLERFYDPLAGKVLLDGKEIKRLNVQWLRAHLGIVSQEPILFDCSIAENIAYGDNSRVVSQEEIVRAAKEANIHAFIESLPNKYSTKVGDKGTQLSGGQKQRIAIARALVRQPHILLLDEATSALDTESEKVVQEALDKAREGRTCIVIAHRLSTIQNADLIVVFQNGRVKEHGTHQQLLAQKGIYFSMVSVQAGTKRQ

human CYP3A4, sequence (P08684 whole entry): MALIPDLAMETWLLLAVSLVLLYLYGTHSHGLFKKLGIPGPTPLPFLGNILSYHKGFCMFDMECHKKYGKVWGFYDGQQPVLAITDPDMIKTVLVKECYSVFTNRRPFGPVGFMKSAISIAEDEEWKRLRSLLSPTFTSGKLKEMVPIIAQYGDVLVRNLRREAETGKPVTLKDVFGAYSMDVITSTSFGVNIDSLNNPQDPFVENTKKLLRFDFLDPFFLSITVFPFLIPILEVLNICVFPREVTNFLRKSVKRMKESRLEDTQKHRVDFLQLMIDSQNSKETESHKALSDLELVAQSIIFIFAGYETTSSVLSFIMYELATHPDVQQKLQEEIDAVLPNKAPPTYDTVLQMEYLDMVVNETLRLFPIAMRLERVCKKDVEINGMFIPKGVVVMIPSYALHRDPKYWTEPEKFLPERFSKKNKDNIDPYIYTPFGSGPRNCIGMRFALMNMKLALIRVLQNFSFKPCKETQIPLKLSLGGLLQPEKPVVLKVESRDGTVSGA

inhibition of human CYP3A4 (human CYP3A4): inhibits | inhibition of P-glycoprotein (P-glycoprotein): inhibits
Compound: O=C(/C=C/C=C/c1ccc2c(c1)OCO2)N1CCCCC1 [Bioperine®, (2E,4E)-5-(1,3-benzodioxol-5-yl)-1-(piperidin-1-yl)penta-2,4-dien-1-one]
